# Columns and labels:
# [1] = biological target: T1, mouse odorant receptors (ORs) (Mus musculus, UniProt Q9JHB2); assay: CRE-luciferase assay of odorant receptor activation (Dual-Glo, Hana3A cells, RTP1S), dose-response EC50; format: cell-based; conditions: receptor MOR140-1
# T1 construct: OR open reading frames were amplified from genomic DNA; expressed in transfected cells; host or cells: Hana3A cells, co-transfected with RTP1S, CRE-luciferase and pRL-SV40
# T1 sequence (Q9JHB2 1-309): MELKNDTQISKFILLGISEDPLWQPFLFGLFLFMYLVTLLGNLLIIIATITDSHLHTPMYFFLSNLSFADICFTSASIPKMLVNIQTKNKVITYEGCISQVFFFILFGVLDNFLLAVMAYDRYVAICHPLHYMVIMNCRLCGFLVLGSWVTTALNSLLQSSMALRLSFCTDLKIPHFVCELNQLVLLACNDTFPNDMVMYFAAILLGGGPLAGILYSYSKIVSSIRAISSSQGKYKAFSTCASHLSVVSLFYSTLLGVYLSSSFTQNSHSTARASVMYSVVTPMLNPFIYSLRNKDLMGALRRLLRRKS
# [2] = biological target: T2, mouse odorant receptors (ORs) (Mus musculus, UniProt Q8VGS3); assay: as above; format: cell-based; conditions: receptor MOR180-1; read-out: log EC50 of odorant at MOR180-1 (0 = no response) (converted)
# T2 construct: OR open reading frames were amplified from genomic DNA; expressed in transfected cells; host or cells: Hana3A cells, co-transfected with RTP1S, CRE-luciferase and pRL-SV40
# T2 sequence (Q8VGS3 1-310): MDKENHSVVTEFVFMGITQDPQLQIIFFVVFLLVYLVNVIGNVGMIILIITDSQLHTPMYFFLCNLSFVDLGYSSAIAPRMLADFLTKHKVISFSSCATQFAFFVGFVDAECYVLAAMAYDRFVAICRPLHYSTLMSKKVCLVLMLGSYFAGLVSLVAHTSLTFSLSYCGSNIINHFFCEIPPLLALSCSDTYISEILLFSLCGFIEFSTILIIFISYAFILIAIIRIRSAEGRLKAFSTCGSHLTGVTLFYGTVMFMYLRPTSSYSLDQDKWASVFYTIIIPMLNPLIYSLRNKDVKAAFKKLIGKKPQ
"log EC50 (Table 4 value), MOR140-1 [1]",EC50 [2] [µM],Compound
−3.614,–,CCCCCC1=C(C)CCC1=O [Dihydroiasmone]
–,661,CC(=O)Oc1ccccc1 [Phenyl acetate]

# From US20100248390A1, “COMPOSITIONS AND METHODS FOR IDENTIFYING LIGANDS OF ODORANT RECEPTORS” (DUKE UNIVERSITY, priority 2009, published 2010)
